Measured values: patent US20090068290A1, “BIFEPRUNOX DOSES FOR TREATING SCHIZOPHRENIA” (priority 2006, published 2009)

Legend:
Format in all cases: in vivo, human
[1] = tested on: adult subjects with schizophrenia; experiment: PANSS positive symptom subscale score, Clinical Study Three; details: Olanzapine 15 mg, LOCF, ITT
Description: (§1) SECONDARY OBJECTIVES To assess the efficacy of bifeprunox in treating schizophrenia using the Positive Symptom sub-scale score of the PANSS, the Negative Symptom sub-scale score of the PANSS, the General Psychopathology sub-scale of the PANSS, Brief Psychiatric Rating Scale (BPRS) total score derived from the PANSS, BPRS psychosis score derived from the PANSS, the Clinical Global Impression Severity of Illness score (CGI-S), the Clinical Global Impression Improvement score (CGI-I), CGI-I responder rate, PANSS responder rate based on the PANSS total score, Calgary Depression Scale for Schizophrenia (CDSS), and Subject Satisfaction rating.
(§2) There were four treatment arms in this study, approximately 144 subjects per arm. […] After completing the Single-Blind Placebo Lead-in Period of at least three days, bifeprunox-treated subjects were titrated from 0.25 mg up to 20 mg/day or 30 mg/day according to a standardized titration scheme over a seven- or eight-day period, respectively. When the assigned dose was reached, subjects were maintained at that dose for the remainder of the six week treatment period. […] Subjects were hospitalized (if not already inpatients) after eligibility for study entry was verified, starting from the Screening Visit until at least 10 days after Baseline. Subjects could be hospitalized longer than 10 days if considered medically necessary by the Investigator. Rating scale assessments for efficacy and abnormal movement disorders were done weekly except for Week 5. […] Subject satisfaction with study medication was assessed at Week 6.

[2] = tested on: adult subjects with schizophrenia; experiment: PANSS total score, Clinical Study Three (6-week, olanzapine-referenced); details: Olanzapine 15 mg, LOCF, ITT
Procedure: There were four treatment arms in this study, approximately 144 subjects per arm. […] After completing the Single-Blind Placebo Lead-in Period of at least three days, bifeprunox-treated subjects were titrated from 0.25 mg up to 20 mg/day or 30 mg/day according to a standardized titration scheme over a seven- or eight-day period, respectively. When the assigned dose was reached, subjects were maintained at that dose for the remainder of the six week treatment period. […] Subjects were hospitalized (if not already inpatients) after eligibility for study entry was verified, starting from the Screening Visit until at least 10 days after Baseline. Subjects could be hospitalized longer than 10 days if considered medically necessary by the Investigator. Rating scale assessments for efficacy and abnormal movement disorders were done weekly except for Week 5. Safety assessments were performed at Screening, during treatment and at the end of the study. Subject satisfaction with study medication was assessed at Week 6. Samples of whole blood were obtained at Weeks 2, 4, and 6 for determination of bifeprunox in plasma.
Test Product, Dose and Mode of Administration: Bifeprunox tablets, total daily dose 20 mg or 30 mg (one 20 mg tablet and one 10 mg tablet) administered orally using a once daily dosing regimen.

[3] = tested on: adult subjects with schizophrenia; experiment: PANSS general psychopathology subscale score, Clinical Study Three; details: LOCF; for Change from Baseline in PASS General Psychopathology Subscale Score, Mean (SD) / Change from Baseline in PASS General Psychopathology Subscale Score, Median: Olanzapine 15 mg, ITT population
Description: as §1, §2

[4] = tested on: adult subjects with schizophrenia; experiment: PANSS negative symptom subscale score, Clinical Study Three; details: LOCF; for Change from Baseline in PANSS Negative Symptom Subscale Score, Mean (SD) / Change from Baseline in PANSS Negative Symptom Subscale Score, Median: Olanzapine 15 mg, ITT population
Description: as §1, §2

[5] = tested on: adult subjects with schizophrenia; experiment: CGI Severity of Illness score, Clinical Study Three; details: LOCF; for Change from Baseline in CGI Severity of Illness Score, Mean (SD) / Change from Baseline in CGI Severity of Illness Score, Median: 15 mg
Description: as §1, §2

[6] = tested on: adult subjects with schizophrenia; experiment: PANSS general psychopathology subscale score, Clinical Study Two; details: LOCF; for Change from Baseline in General Psychopathology Subscale Score, Mean (SD) / Change from Baseline in General Psychopathology Subscale Score, Median: Risperidone 6 mg, ITT population
Procedure: Rating scale assessments were performed weekly, except for week 5, to measure the change from baseline to endpoint of the PANSS total score. Other assessments included: PANSS positive symptom subscale score, PANSS negative symptom subscale score, PANSS general pschopathology subscale score, BPRS total score, BPRS psychosis score, the CGI-S score, the CGI-I score, responder rates based on the PANSS total score, and the Calgary Depression Scale for Schizophrenia (CDSS). […]
Subjects who completed this study had the option to continue in the long-term. […] Risperidone-treated subjects were titrated from 2 mg to 6 mg daily over a three-day period and were subsequently maintained at 6 mg/day for the remainder of the treatment period. […] Blood samples were also obtained at Screening/Baseline, Week 3, and Week 6 for clinical laboratory assessments.

## Cc1cc2c(s1)Nc1ccccc1N=C2N1CCN(C)CC1 [Olanzapine, olanzapine, reference compound]
[1]; Week 1
  Change from Baseline in PANSS Positive Symptom Subscale Score, Mean (SD): −3.0 (3.3)
  Change from Baseline in PANSS Positive Symptom Subscale Score, Median: −2
[1]; Week 2
  Change from Baseline in PANSS Positive Symptom Subscale Score, Mean (SD): −4.9 (4.0)
  Change from Baseline in PANSS Positive Symptom Subscale Score, Median: −5
[1]; Week 3
  Change from Baseline in PANSS Positive Symptom Subscale Score, Mean (SD): −6.0 (4.9)
  Change from Baseline in PANSS Positive Symptom Subscale Score, Median: −6
[1]; Week 4
  Change from Baseline in PANSS Positive Symptom Subscale Score, Mean (SD): −6.4 (5.4)
  Change from Baseline in PANSS Positive Symptom Subscale Score, Median: −7
[1]; Week 6/Endpoint
  Change from Baseline in PANSS Positive Symptom Subscale Score, Mean (SD): −7.0 (5.8)
  Change from Baseline in PANSS Positive Symptom Subscale Score, Median: −7
[2]; Week 1
  Change from Baseline in PANSS Total Score, Mean (SD): −9.3 (11.2)
  Change from Baseline in PANSS Total Score, Median: −6
[2]; Week 2
  Change from Baseline in PANSS Total Score, Mean (SD): −15.1 (13.6)
  Change from Baseline in PANSS Total Score, Median: −12
[2]; Week 3
  Change from Baseline in PANSS Total Score, Mean (SD): −19.3 (15.8)
  Change from Baseline in PANSS Total Score, Median: −18
[2]; Week 4
  Change from Baseline in PANSS Total Score, Mean (SD): −20.0 (16.5)
  Change from Baseline in PANSS Total Score, Median: −18
[2]; Week 6/Endpoint
  Change from Baseline in PANSS Total Score, Mean (SD): −22.0 (18.2)
  Change from Baseline in PANSS Total Score, Median: −21
[3]; Week 1
  Change from Baseline in PASS General Psychopathology Subscale Score, Mean (SD): −4.5 (6.2)
  Change from Baseline in PASS General Psychopathology Subscale Score, Median: −3
[3]; Week 2
  Change from Baseline in PASS General Psychopathology Subscale Score, Mean (SD): −7.2 (7.8)
  Change from Baseline in PASS General Psychopathology Subscale Score, Median: −6
[3]; Week 3
  Change from Baseline in PASS General Psychopathology Subscale Score, Mean (SD): −9.3 (8.3)
  Change from Baseline in PASS General Psychopathology Subscale Score, Median: −8
[3]; Week 4
  Change from Baseline in PASS General Psychopathology Subscale Score, Mean (SD): −9.6 (8.6)
  Change from Baseline in PASS General Psychopathology Subscale Score, Median: −9
[3]; Week 6/Endpoint
  Change from Baseline in PASS General Psychopathology Subscale Score, Mean (SD): −10.5 (9.4)
  Change from Baseline in PASS General Psychopathology Subscale Score, Median: −9
[3]; olanzapine 15 mg, ITT
  mean change (SD) from Baseline to Endpoint in PANSS general psychopathology subscale score: −10.5 (9.4)
[4]; Week 1
  Change from Baseline in PANSS Negative Symptom Subscale Score, Mean (SD): −1.8 (3.1)
  Change from Baseline in PANSS Negative Symptom Subscale Score, Median: −1
[4]; Week 2
  Change from Baseline in PANSS Negative Symptom Subscale Score, Mean (SD): −3.0 (3.8)
  Change from Baseline in PANSS Negative Symptom Subscale Score, Median: −3
[4]; Week 3
  Change from Baseline in PANSS Negative Symptom Subscale Score, Mean (SD): −4.0 (4.8)
  Change from Baseline in PANSS Negative Symptom Subscale Score, Median: −3
[4]; Week 4
  Change from Baseline in PANSS Negative Symptom Subscale Score, Mean (SD): −4.0 (4.9)
  Change from Baseline in PANSS Negative Symptom Subscale Score, Median: −4
[4]; Week 6/Endpoint
  Change from Baseline in PANSS Negative Symptom Subscale Score, Mean (SD): −4.6 (5.2)
  Change from Baseline in PANSS Negative Symptom Subscale Score, Median: −4
[4]; olanzapine 15 mg, ITT
  mean change (SD) from Baseline to Endpoint in PANSS Negative Symptom subscale score: −4.6 (5.2)
[5]; Week 1
  Change from Baseline in CGI Severity of Illness Score, Mean (SD): −0.40 (0.65)
  Change from Baseline in CGI Severity of Illness Score, Median: 0.0
[5]; Week 2
  Change from Baseline in CGI Severity of Illness Score, Mean (SD): −0.71 (0.76)
  Change from Baseline in CGI Severity of Illness Score, Median: −1.0
[5]; Week 3
  Change from Baseline in CGI Severity of Illness Score, Mean (SD): −0.85 (0.87)
  Change from Baseline in CGI Severity of Illness Score, Median: −1.0
[5]; Week 4
  Change from Baseline in CGI Severity of Illness Score, Mean (SD): −0.92 (0.90)
  Change from Baseline in CGI Severity of Illness Score, Median: −1.0
[5]; Week 6/Endpoint
  Change from Baseline in CGI Severity of Illness Score, Mean (SD): −1.03 (1.00)
  Change from Baseline in CGI Severity of Illness Score, Median: −1.0
[5]; olanzapine 15 mg, ITT
  mean change (SD) from Baseline to Endpoint in CGI severity of illness score: −1.03 (1.00)

## Cc1nc2n(c(=O)c1CCN1CCC(c3noc4cc(F)ccc34)CC1)CCCC2 [Risperidone, risperidone, reference compound]
[6]; Week 1
  Change from Baseline in General Psychopathology Subscale Score, Mean (SD): −3.9 (5.6)
  Change from Baseline in General Psychopathology Subscale Score, Median: −4
[6]; Week 2
  Change from Baseline in General Psychopathology Subscale Score, Mean (SD): −6.7 (7.3)
  Change from Baseline in General Psychopathology Subscale Score, Median: −6
[6]; Week 3
  Change from Baseline in General Psychopathology Subscale Score, Mean (SD): −7.6 (7.7)
  Change from Baseline in General Psychopathology Subscale Score, Median: −8
[6]; Week 4
  Change from Baseline in General Psychopathology Subscale Score, Mean (SD): −8.4 (8.5)
  Change from Baseline in General Psychopathology Subscale Score, Median: −9
[6]; Week 6/Endpoint
  Change from Baseline in General Psychopathology Subscale Score, Mean (SD): −8.6 (9.8)
  Change from Baseline in General Psychopathology Subscale Score, Median: −9
[6]; risperidone 6 mg, ITT
  mean change (SD) from Baseline to Endpoint in PANSS general psychopathology subscale score: −8.6 (9.8)
